Source: US20250290074A1, “TARGETED TREATMENT OF SPLICEOPATHY-INDUCED NEUROLOGICAL DISORDERS” (Auttx, LLC, priority 2022, published 2025)
pEC50: −log10 of the molar value. Like-named read-outs stand apart in the source and are kept apart here. Strand notation (5' to 3'): a small letter for the sugar, then the base; units joined by * are phosphorothioate-linked, units joined directly phosphodiester-linked; [ ] holds rarer units or linkages, { } end groups; capitals alone tell only the bases. e = 2'-O-(2-methoxyethyl) (MOE); [5mC] = 5-methylcytosine

Tests used:
[1] = test system: glucose transporter 1 (GLUT-1); details: Jeong J. H. et al. 2011; cited from earlier work
cancer = details: literature; cited from earlier work
[2] = U.S. Pat. No. 3,995,061, cited from earlier work; for toxicity: administered orally to human
[3] = rat, in vivo, po; cited from earlier work
[4] = cited from earlier work; for toxicity (LD50): IP or oral administration, U.S. Pat. No. 3,995,061, FIGS. 15A and 15B; for toxicity (shown to be non-toxic): in vivo
[5] = test system: vascular endothelial growth factor (VEGF); details: Jeong J. H. et al. 2011; cited from earlier work
[6] = mouse, in vivo, po; cited from earlier work
HNRNPL = details: Gene HNRNPL; cited from earlier work
TDP-43 aggregation = details: iPS cell derived motor neurons, sporadic ALS; Burkhardt et al. 2013; cited from earlier work
hnRNP L [7] = details: cited from earlier work; for increase in the levels of hnRNP L: human osteosarcoma cells (U2OS)
hnRNP L [8] = test: hnRNP L expression in human differentiated myoblasts after ASC treatment; format: cell-based
Description: (§1) Such function of ASC was also found in human osteosarcoma cells (about 10-fold) and multiple disease models, see PCT publication no. WO/2019/236750, which is incorporated by reference herein in its entirety.

hnRNP L [9] = test: hnRNP L levels after ASC treatment in SH-SY5Y human neuroblastoma cells; format: cell-based; details: FIG. 14B
Method: (§2) FIG. 14 is a gel image showing a comparison of hnRNP L protein levels in rat primary cortical neurons with or without ASC treatments at different doses. The rat neurons were treated with 10^−7 M or 10^−6 M ASC, or not treated as control (“Cont.”), and then lysed for western blot detection of protein expression levels of hnRNP L (the upper panel). The arrow points to hnRNP L protein bands (appears as a triplet). […] FIG. 14B is a gel image showing elevation of hnRNP L levels after ASC treatment in SH-SY5Y human neuroblastoma cells (CLT results).

hnRNP L [10] = test: Western blot of hnRNP L protein in rat primary cortical neurons after ASC treatment; format: cell-based; details: 10^−7 M or 10^−6 M ASC, FIG. 14
Method: as §2, §1

hsHNRNP L mRNA = test: Time-course experiment, ASOs at 30 nM, hnRNP L mRNA by bDNA in BE(2)-M17 cells; format: cell-based, Homo sapiens; details: 30 nM ASO, mock controls set to 100%, incubations 24 h, 48 h, 72 h, time point not given
Method: Lipofectamine3000 (LF3000) was again used as the transfection agent. The transfection mixture was prepared identically on three plates. […] In this case, no outliers were removed. Data were generated in biological quadruplicates.
FIG. 26 includes a comparison of results from this study next to results from Example 7. Observing the results after 24 h incubation, similar data from the analysis in Example 7 were reproduced here.

[11] = test system: human hnRNP L (hsHNRNP L) mRNA; test: 5-point dose response (DRC) of ASOs, hnRNP L mRNA by branched DNA assay in BE(2)-M17 cells; format: cell-based; details: 24 h; for max. upregulation [%] (MV normalized hsHNRNP L/hsGAPDH): Lipofectamine3000, highest 120 nM, four 4-fold dilutions, bDNA, negative controls set to 100%; for pEC50: hsHNRNP L mRNA upregulation, XLfit
Description: Data were generated in biological quadruplicates. […] No significant decrease in hsGAPDH mRNA levels was observed.
Details and data are shown in Table 9A-9B, FIG. 24, and FIG. 25A-25E. In some cases, there was dose dependent hsHNRNP L on-target mRNA upregulation to varying degrees when cells were transfected with ASO compounds of interest.

## COc1c(Cl)c(C)c(C=O)c(O)c1C/C=C(C)/C=C/[C@@]1(C)[C@H](C)CCC(=O)[C@@H]1C [MAC, 4-O-methylascochlorin]
[1]
  expression of GLUT-1: increases
cancer
  antitumorigenic / anti-cancer properties: antitumorigenic properties
[2]
  tolerability in clinical trials: well tolerated
  toxicity: low toxicity
[3]
  toxicity: low toxicity
[4]
  toxicity (LD50): low toxicity
[5]
  expression of VEGF: increases
[6]
  toxicity: low toxicity

## CN(C)C(=O)Oc1cccc([N+](C)(C)C)c1 [neostigmine bromide]
HNRNPL
  Source (DSigDB signature, association with increased hnRNP L levels): D3(UP)

## C[C@@H]1O[C@@H](O[C@@H]2C=C3CC[C@@H]4[C@H](CC[C@]5(C)[C@@H](c6ccc(=O)oc6)CC[C@]45O)[C@@]3(C)CC2)[C@H](O)[C@H](O)[C@H]1O [proscillaridin]
HNRNPL
  Source (DSigDB signature, association with increased hnRNP L levels): D3(UP)
TDP-43 aggregation
  hit in screen for compounds reducing TDP-43 aggregation: hits confirmed in dose response assays

## C[C@H]1O[C@@H](O[C@H]2[C@@H](O)C[C@H](O[C@H]3[C@@H](O)C[C@H](O[C@H]4CC[C@@]5(C)[C@H](CC[C@@H]6[C@@H]5C[C@@H](O)[C@]5(C)[C@@H](C7=CC(=O)OC7)CC[C@]65O)C4)O[C@@H]3C)O[C@@H]2C)C[C@H](O)[C@@H]1O [digoxin]
HNRNPL
  Source (DSigDB signature, association with increased hnRNP L levels): D3(UP)
TDP-43 aggregation
  hit in screen for compounds reducing TDP-43 aggregation: hits confirmed in dose response assays

## C=C1CC[C@H](O)C(C)(C)[C@@H]1CC/C(C)=C/Cc1c(O)c(Cl)c(C)c(C=O)c1O [acremochlorin A, reference compound]
cancer
  antitumorigenic / anti-cancer properties: anti-cancer properties

## CC(C=CC1(C)C(C)CCC(=O)C1C)=CCc1c(O)c(Br)c(C)c(C=O)c1O (centres unmarked) [3-bromoascochlorin, reference compound]
cancer
  antitumorigenic / anti-cancer properties: anti-cancer properties

## ascochlorin
cancer
  antitumorigenic / anti-cancer properties: antitumorigenic properties
hnRNP L [7]; Kang J. H. et al. J Proteome Res. 2006
  increase of hnRNP L levels: ~12 ×
hnRNP L [7]
  increase in the levels of hnRNP L: ≥ 10 fold
hnRNP L [7]; listed as ASC
  increase in the levels of hnRNP L: about 10 fold
hnRNP L [8]
  increase of hnRNP L expression levels: about 6 fold
hnRNP L [9]
  hnRNP L levels: elevation
hnRNP L [10]
  hnRNP L expression levels: increased
[4]
  toxicity (shown to be non-toxic): non-toxic

## CCc1c2c(nc3ccc(OC(=O)N4CCC(N5CCCCC5)CC4)cc13)-c1cc3c(c(=O)n1C2)COC(=O)[C@]3(O)CC [irinotecan]
HNRNPL
  Source (DSigDB signature, association with increased hnRNP L levels): D3(UP)

## C[C@H](CS)C(=O)N1CCC[C@H]1C(=O)O [captopril]
HNRNPL
  Source (DSigDB signature, association with increased hnRNP L levels): D3(UP)

## CCOc1c(Cl)c(C)c(C=O)c(O)c1C/C=C(C)/C=C/C1(C)C(C)CCC(=O)C1C (centres unmarked) [4-O-ethyl-ascochlorin]
[2]
  toxicity: low toxicity
[4]
  toxicity (LD50): low toxicity

## Skip-6A-7: ASO GCGACCCTGCATCACATGGTTT (SEQ ID NO: 56), fully 2′-MOE, 5′-methyl C, phosphorothioate; upstream intron/exon (antisense eG*e[5mC]*eG*eA*e[5mC]*e[5mC]*e[5mC]*eT*eG*e[5mC]*eA*eT*e[5mC]*eA*e[5mC]*eA*eT*eG*eG*eT*eT*eT; listed as Homo sapiens)
hsHNRNP L mRNA
  MV normalized hsHNRNP L/hsGAPDH: 59.3%
[11]
  max. upregulation [%] (MV normalized hsHNRNP L/hsGAPDH): 51.2%
  pEC50: 8.05

## Skip-6A-19: ASO TTCTCTTACCATTGGACGCTTC (SEQ ID NO: 68), fully 2′-MOE, 5′-methyl C, phosphorothioate; exon 6A (antisense eT*eT*e[5mC]*eT*e[5mC]*eT*eT*eA*e[5mC]*e[5mC]*eA*eT*eT*eG*eG*eA*e[5mC]*eG*e[5mC]*eT*eT*e[5mC]; listed as Homo sapiens)
hsHNRNP L mRNA
  MV normalized hsHNRNP L/hsGAPDH: 62.4%
[11]
  max. upregulation [%] (MV normalized hsHNRNP L/hsGAPDH): 51.8%
  pEC50: 8.13

## C/C(=C\Cc1c(O)c(Cl)c(C)c(C=O)c1O)CC/C=C(\C)[C@@H]1CC(=O)C(C)(C)O1 [ascofuranone]
cancer
  antitumorigenic / anti-cancer properties: antitumorigenic properties
[4]
  toxicity (shown to be non-toxic): non-toxic

## Skip-6A-16: ASO CTTCAACAGTGAGTTAGCACAG (SEQ ID NO: 65), fully 2′-MOE, 5′-methyl C, phosphorothioate; exon 6A (antisense e[5mC]*eT*eT*e[5mC]*eA*eA*e[5mC]*eA*eG*eT*eG*eA*eG*eT*eT*eA*eG*e[5mC]*eA*e[5mC]*eA*eG; listed as Homo sapiens)
hsHNRNP L mRNA
  MV normalized hsHNRNP L/hsGAPDH: 53.2%
[11]
  max. upregulation [%] (MV normalized hsHNRNP L/hsGAPDH): 61.6%
  pEC50: 8.31
